Our source for the TGI values is PubChem BioAssay (NCI).

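96-well plates; 48 h exposure; 5 concentrations. Endpoints by linear interpolation between flanking doses. Not reached: highest tested concentration assigned. TGI marks complete inhibition of growth.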 Where a SMILES comes first, the peptide text is derived from it. The star is where a group is joined. Boc = CC(C)(C)OC(=O)*

Among the test systems are SK-MEL-28 melanoma; K-562 leukemia; MDA-N; SK-MEL-2 melanoma; 786-0 renal; SN12C renal; KM12 colon; ACHN renal; OVCAR-4 ovarian; MALME-3M melanoma; HOP-92 NSCLC.
What all share (experiment): inhibition of tumour cell growth, NCI panel, 48 h

In the case of `CCc1nn(S(=O)(=O)c2ccc(C)cc2)c2c1CS(=O)(=O)CC2`, the TGI in the experiment on SK-MEL-28 melanoma, in the experiment with K-562 leukemia, with MDA-N, with SK-MEL-2 melanoma, with 786-0 renal and in the experiment with SN12C renal was more than 100 µM throughout. Also, the TGI in the experiment with KM12 colon, in the experiment with ACHN renal and with OVCAR-4 ovarian was more than 100 µM in each case.
For the compound `COC(=O)C(Cc1c[nH]c2ccccc12)NC(=O)C(Cc1c[nH]c2ccccc12)NC(=O)C(Cc1c[nH]c2ccccc12)NC(=O)C(Cc1c[nH]c2ccccc12)NC(=O)OC(C)(C)C` (configuration not stated) (Boc-WWWW-OMe; configuration not given here), the TGI in the experiment with SK-MEL-28 melanoma is more than 100 µM; in the experiment with MALME-3M melanoma, more than 100 µM; with K-562 leukemia, more than 100 µM; with MDA-N, 55.3 µM; in the experiment with 786-0 renal, more than 100 µM; in the experiment with SN12C renal it was more than 100 µM. Moreover, the TGI in the experiment with ACHN renal and in the experiment with OVCAR-4 ovarian was more than 100 µM each time.
Consider `Cc1ccc(NC(=S)Nc2c(C)n(C)n(-c3ccccc3)c2=O)cc1`, for which the TGI in the experiment with SK-MEL-28 melanoma, in the experiment with MALME-3M melanoma, with HOP-92 NSCLC, with K-562 leukemia, in the experiment with MDA-N and in the experiment on 786-0 renal was more than 100 µM in each case. Moreover, the TGI with KM12 colon and with ACHN renal was more than 100 µM throughout.
As for `O=C1O[C@H](C(Cl)(Cl)Cl)N2CCCC12` (some centres not stated), the TGI with SK-MEL-28 melanoma, with MALME-3M melanoma, in the experiment on HOP-92 NSCLC, in the experiment with K-562 leukemia, in the experiment on SK-MEL-2 melanoma and in the experiment with 786-0 renal was more than 100 µM each time. In addition, the TGI with SN12C renal, with KM12 colon, in the experiment on ACHN renal and in the experiment on OVCAR-4 ovarian was more than 100 µM throughout.
Take `CCOC(=O)c1c2c(n(-c3ccc(OC)cc3)c1C)C(=O)C(=O)c1ccccc1-2`: the TGI was 3.89 µM in the experiment on SK-MEL-28 melanoma; 0.605 µM in the experiment on MALME-3M melanoma; 3.98 µM in the experiment with HOP-92 NSCLC; more than 21.8 µM in the experiment with SK-MEL-2 melanoma; 3.5 µM with 786-0 renal; 3.19 µM in the experiment with SN12C renal. Besides, the TGI amounted to 3.61 µM in the experiment on KM12 colon, 2.36 µM in the experiment with ACHN renal and 3.44 µM in the experiment on OVCAR-4 ovarian.
Regarding `CC(C)(C)OC(=O)NC(Cc1ccc(O)cn1)C(N)=O` (configuration not stated), the TGI in the experiment with SK-MEL-28 melanoma, in the experiment with MALME-3M melanoma, with HOP-92 NSCLC, in the experiment on MDA-N, in the experiment on 786-0 renal and in the experiment on SN12C renal was more than 100 µM in each case. In addition, the TGI in the experiment with KM12 colon, with ACHN renal and in the experiment on OVCAR-4 ovarian was more than 100 µM throughout.
Consider `OCC(O)C1OC2CC1Nc1ccccc1N2` (configuration not stated), for which the TGI in the experiment on SK-MEL-28 melanoma, with MALME-3M melanoma, in the experiment on HOP-92 NSCLC, with K-562 leukemia, with SK-MEL-2 melanoma and in the experiment with 786-0 renal was more than 100 µM each time. Moreover, the TGI in the experiment with SN12C renal, in the experiment on KM12 colon and in the experiment on ACHN renal was more than 100 µM throughout.
Turning to `CCOC(=O)C(=O)C1C(=O)Nc2ccccc21` (configuration not stated), the TGI with SK-MEL-28 melanoma, in the experiment on MALME-3M melanoma, in the experiment on HOP-92 NSCLC, with K-562 leukemia, with SK-MEL-2 melanoma and with 786-0 renal was more than 100 µM each time. Moreover, the TGI in the experiment with SN12C renal, in the experiment on KM12 colon, in the experiment on ACHN renal and in the experiment with OVCAR-4 ovarian was more than 100 µM throughout.
Take `CCOC(=O)/C(C#N)=C/c1ccc(CO)o1`: the TGI in the experiment on SK-MEL-28 melanoma, in the experiment on MALME-3M melanoma, in the experiment with K-562 leukemia, with MDA-N, with 786-0 renal and in the experiment with SN12C renal was more than 100 µM throughout. Also, the TGI in the experiment with KM12 colon, in the experiment with ACHN renal and in the experiment on OVCAR-4 ovarian was more than 100 µM throughout.
Regarding `C[C@H](CC[C@@H](O)C(C)(C)O)[C@H]1CC[C@@]2(C)[C@@H]3CC=C4[C@@H](CC[C@H](O)C4(C)C)[C@]3(C)C(=O)C[C@]12C`, the TGI in the experiment on SK-MEL-28 melanoma, with MALME-3M melanoma, in the experiment on K-562 leukemia, with MDA-N, in the experiment with SK-MEL-2 melanoma and in the experiment with 786-0 renal was more than 50 µM throughout. Moreover, the TGI with SN12C renal was more than 50 µM; in the experiment on KM12 colon it was 49.2 µM; in the experiment on ACHN renal, more than 50 µM; in the experiment with OVCAR-4 ovarian it was more than 50 µM.
Consider `COc1ccc(Oc2nc3ccc(C(F)(F)F)cc3nc2-c2ccccc2)cc1`, for which the TGI in the experiment on SK-MEL-28 melanoma, in the experiment with MALME-3M melanoma, in the experiment on HOP-92 NSCLC, in the experiment with K-562 leukemia, with SK-MEL-2 melanoma and in the experiment with 786-0 renal was more than 100 µM each time. In addition, the TGI in the experiment with SN12C renal, in the experiment with KM12 colon, in the experiment with ACHN renal and with OVCAR-4 ovarian was more than 100 µM each time.
For `CCNC(=O)/C=C/CCC#Cc1ccc(-c2ccc(-c3cccs3)s2)s1`, the TGI in the experiment on MALME-3M melanoma, in the experiment on HOP-92 NSCLC, with SK-MEL-2 melanoma, with 786-0 renal, in the experiment with KM12 colon and with ACHN renal was more than 100 µM in each case. This compound returned a TGI with OVCAR-4 ovarian of more than 100 µM.
For `OCC(Cn1cncn1)(c1ccc(F)cc1F)n1cncn1` (configuration not stated), the TGI with SK-MEL-28 melanoma, in the experiment on MALME-3M melanoma, in the experiment with K-562 leukemia, in the experiment with MDA-N, with SK-MEL-2 melanoma and in the experiment on 786-0 renal was more than 100 µM in each case. In addition, the TGI in the experiment on SN12C renal, in the experiment on KM12 colon and in the experiment on ACHN renal was more than 100 µM in each case.
With `O=C(Nc1nnc(-c2ccccc2)o1)C(SC(=S)N1CCOCC1)c1ccccc1` (configuration not stated), the TGI in the experiment on SK-MEL-28 melanoma, in the experiment on MALME-3M melanoma, in the experiment with K-562 leukemia, in the experiment on MDA-N, in the experiment on SK-MEL-2 melanoma and in the experiment on 786-0 renal was more than 100 µM each time. For the same compound, the TGI in the experiment on SN12C renal, in the experiment on KM12 colon, in the experiment with ACHN renal and in the experiment on OVCAR-4 ovarian was more than 100 µM each time.
